Laboratory results published in patent publication US20250195576A1, “METHOD TO GENERATE MORE EFFICIENT CAR-T CELLS” (INSTITUT NATIONAL DE LA SANTÉ ET DE LA RECHERCHE MÉDICALE, priority 2022, published 2025).

Tests used:
[1] = system: Human primary T lymphocytes; assay: Calcium measurements upon TCR stimulation; assay type: cell-based; conditions: compared to untreated cells; data not shown
Method: Calcium Measurements. T cells were incubated for 20 minutes at 37° C. with 1.5 μM Fura-2/AM (Molecular Probes, F1225). Experiments were performed at 37° C. in mammalian saline buffer (140 mM NaCl, 5 mM KCl, 1 mM CaCl2, 1 mM MgCl2, 20 mM HEPES, 11 mM glucose). Calcium measurements by spectrofluorimetry were performed as previously described (Conche et al. 2009) with a Cary Eclipse spectrofluorimeter (Varian) (excitation: 340 and 380 nm; emission: 510 nm).

[2] = system: Human primary T lymphocytes; assay: T cell subsets and immune checkpoint expression by flow cytometry; assay type: cell-based
Method: PBT were treated with 500 nM of AS1842856 or vehicle only for 7 days. (3A) Memory subsets composition in vehicle or AS1842856 CD4 (upper panel) and CD8 (lower panel) cells. TN are CD45RA+, CD27+, CD95−; TSCM are CD45RA+, CD27+, CD95+; TCM are CD45RA−, CD27+; TEM are CD45RA−, CD27− and Teff are CD45RA+, CD27−. The graphs show the mean percentage±SEM of the different subsets in vehicle or AS1842856 conditions on CD4 (upper panel) and CD8 (lower panel) T cells obtained with five independent donors. Significance was assessed using 1-way Anova test. (3B) CTLA-4, PD-1 and TIGIT expressions on CD4 (upper panel) and CD8 (lower panel) T cells were measured by FACS. The graphs show the MFI±SEM obtained with five independent donors. Significance was assessed using a paired Student t-test.
(§1) Flow cytometry. Cells were washed and stained with antibodies diluted in PBS (Thermo Fisher Scientific; cat #10010001) supplemented with 0.1% BSA (Sigma-Aldrich, cat #A7030-500G) for 20 minutes at 4° C. After wash with PBS, cells were immediately analyzed by flow cytometry. For intracellular staining, cells were fixed with 4% paraformaldehyde (PFA) for 10 minutes at room temperature, permeabilized using a buffer containing 0.1% Saponin (Sigma-Aldrich, 84510) in PBS and stained after two PBS washes using antibodies diluted in the same saponin buffer for 30 minutes at 4° C. After two washes, cells were run on BD LSRII (BD Biosciences) and analyzed using FlowJo software.

[3] = system: Human primary T lymphocytes; assay: In vitro proliferation assay (CFSE dilution, anti-CD3/CD28 beads); assay type: cell-based; conditions: data not shown
Method: Proliferation assay. In vitro proliferation assay of primary T cells was assessed by dilution of Cell Trace Fluorescent Green kit (CFSE, Invitrogen, cat #C34554). After two washes in RPMI 1640 GlutaMAX medium, cells were resuspended at 4×10^6 cells per ml in a 5 μM Cell Trace Fluorescent Green solution. Cells were incubated in dark at 37° C. for 20 minutes. After the loading, cells were washed with a volume of hot RPMI medium supplemented with 10% Human AB serum, penicillin and streptomycin (50U/ml and 50 μg/m respectively) corresponding to 5 times the loading volume. Cell suspension was collected and dispensed into 96-wells round-bottom plates (2×10^5 cells per well) and stimulated using anti-CD3/CD28 coated-beads Dynabeads (Invitrogen, #11131D) for 3 days. Samples were run on BD LSR Fortessa and analyzed using FlowJo software. For in vivo proliferation assay, T^AS cells were labeled by dilution of CFSE as for in vitro proliferation assay described above. Then 10^7 CFSE^+ cells per immunodificient NSG mouse (NOD.Cg-Prkde^scid I12rg^tm1WjI/SzJ mouse, cat #JAX: 005557, Charles River) resuspended in 100 μL PBS supplemented by 10% FBS were intravenously injected in the retro-orbital vein. 5, 9 or 12 days after injection, spleens were collected to be minced and meshed on the top of a 40 μm cell strainer (Thermo Fisher, #22363547). […] Data were analyzed using FlowJo software.

[4] = system: Human primary T lymphocytes; assay: Chemokine receptor membrane expression by flow cytometry; assay type: cell-based; conditions: data not shown
Method: as §1

FOXO1 = assay: CD62L expression by cytometry; assay type: cell-based, human
Method: Cell transfection. Cells were transfected by nucleofection using the Human T Cell Nucleofector solution (Lonza, VPA-1002) and program U-014 of the Nucleofector AMAXA. For CRISPR, 2×10^6 cells were nucleofected with 75 pmol of Cas9 protein (Thermo Fisher, #A36499) and one RNA guide targeting the FOXO1 gene (Thermo Fisher, #sgRNACRISPR889854_SGM Foxo1) at a 1:1 molar ratio. To induce FOXO1 expression, 5×10^6 cells were transfected with 5 μg DNA of the pEGFP-FOXO1-T24A-S256A-S319A-H215R plasmid (Nagashima et al., 2010) or pEGFP-N1 (clontech) as control. Jurkat T cells (5×106 in RPMI 1640 medium) were electroporated at 260 V, 1000 μF in 4-mm polycarbonate cuvettes (Eurogentec) with 5 μg of the GFP, the triple mutant T24A/S256A/S319A FOX01-GFP (FOXO1-TM-GFP) or the FOXO1-TM-GFP DNA binding mutant plasmids (FOXO1-TM-H215R-GFP) (Fabre et al. 2008). Four hours later, AS1842856 was added or not in the culture. At 48 hours, CD62L expression was analyzed by cytometry.
Flow cytometry. Cells were washed and stained with antibodies diluted in PBS (Thermo Fisher Scientific; cat #10010001) supplemented with 0.1% BSA (Sigma-Aldrich, cat #A7030-500G) for 20 minutes at 4° C. After wash with PBS, cells were immediately analyzed by flow cytometry. […] After two washes, cells were run on BD LSRII (BD Biosciences) and analyzed using FlowJo software.

[5] = system: Human primary T lymphocytes; assay: Granzyme B expression by intracellular flow cytometry; assay type: cell-based
Method: (§2) FIGS. 1A to 1C: FOXO1 inhibition allows increase number of cytotoxic T cells and increased their activity. Human primary T lymphocytes from healthy donor (PBT) were treated with AS1842856 (500 nM) or equivalent of DMSO for 7 days. (1A) Cells were surface labeled with anti-CD4 and anti-CD8, next fixed and permeabilized before labeled with antibodies against Granzyme B. The graphs present the values correspond to the mean±SEM obtained with three independent donors. Significance was assessed using a paired Student t-test. (1B) At the end of the culture, cells were stimulated by PMA and ionomycin during three hours. After CD4 and CD8 labelling, intracellular detection of TNF-α was performed using an antibody against TNF-α. The values correspond to the mean±SEM obtained with three independent donors. Significance was assessed using a paired Student t-test. (1C) CD8 T cells from vehicle or treated cells were purified and co-cultured with P815 target cells pre-coated with anti-CD3 mAb, percentage of lysis was evaluated by 51Cr release assay at different effector: target ratios. The values correspond to the mean±SEM obtained with three independent donors. Significance was assessed using 2-way Anova test.
Cells. […]
(§3) Flow cytometry. […] After wash with PBS, cells were immediately analyzed by flow cytometry. […] After two washes, cells were run on BD LSRII (BD Biosciences) and analyzed using FlowJo software.

[6] = system: Human primary T lymphocytes; assay: TNF-α intracellular labeling and cytokine secretion (MSD assay); assay type: cell-based
Method: as §2, §3

[7] = system: ERK and AKT signaling proteins; assay: Western blot of ERK and AKT phosphorylation upon TCR stimulation; assay type: cell-based, human; conditions: after TCR stimulation, including at steady state; data not shown
Method: Western blot analysis. Protein expression levels were analyzed by Western blot as described (Froehlich et al. 2016). Blotting with primary was followed by goat-anti-mouse- or goat-anti-rabbit-HRP (Jackson ImmunoReseach) incubation and ECL revelation (GE Healthcare, #RPN2106).

[8] = system: Human primary T lymphocytes; assay: Viability assay (propidium iodide); assay type: cell-based; conditions: in vitro culture
Method: PBT were treated with AS1842856 (500 nM) or vehicle only. Every seven days, some cells from the two conditions were collected and labeled with Propidium Iodide (PI). […] Significance was assessed using 2-way Anova test.
Viability assay. Cells were collected and propidium iodide was added (10 μg/ml, Invitrogen). Samples were run on FACSCalibur (Becton Dickinson) and analyzed using FlowJo software.

CCn1cc(C(=O)O)c(=O)c2c(N)c(F)c(NC3CCCCC3)cc21 [AS1842856]
Calcium influx induced upon TCR stimulation [1]: less rapid and of a lower magnitude | CTLA-4 expression [2]: no significant modification | Markers of Th1 (T-bet+), Th2 (GATA3+) and Treg (FOXP3+) subsets ([2]; CD4 subsets, data not shown): no significant changes | Cells expressing PD1 ([2]; after AS1842856 treatment): no more than 10% | Naive subset (CD45RA+/CD27+/CD95−) ([2]; both CD4 and CD8 T cells): sharp decrease | TSCM subset (CD45RA+/CD27+/CD95+) ([2]; both CD4 and CD8 T cells): strong increase | PD1 expression ([2]; both CD8+ and CD4+ cells): small but significant increase | CD8 expression ([2]; data not shown): decreased expression | Tfh (CXCR5+, BcL-6+) subset ([2]; data not shown): slight increase | TIGIT expression ([2]; reaching significance only in CD8+ T cells): consistent increase | CFSE dilution peaks ([3]; after 60h of stimulation): greater number of CFSE dilution peaks | Time to proliferation after stimulation ([3]; anti-CD3/CD28 beads, CFSE): 40 h | CCR4 membrane expression [4]: increase | CCR6 membrane expression [4]: increase | CX3CR1 membrane expression [4]: increase | CXCR4 membrane expression [4]: significant decrease | CD62L expression in Jurkat T cells with FOXO1 H215R mutant (FOXO1; Jurkat T cell line transfected with FOXO1 H215R mutant, 48 hours, data not shown): could not be further decreased | CD62L expression (FOXO1; primary T cells): decrease | Granzyme B expression in CD8 subset ([5]; AS1842856 500 nM, 7 days, CD8 T cells): upregulated | Increase of granzyme B expression ([5]; same conditions as Foxo1 invalidation by CRISPR, data not shown): more than two-fold increase | TNF-α expression (percentage of cells, intracellular labeling) ([6]; 500 nM 7 days, then PMA and ionomycin three hours): significantly increased | TNF-α secreted in supernatant (MSD assay) ([6]; data not shown): confirmed | Phosphorylation of AKT [7]: hypophosphorylation | Phosphorylation of ERK [7]: hyperphosphorylation | T cell viability [8]: promotes | Toxicity on T cells [8]: no toxicity
